Assay [1] deals with iDCs. In words: Peptide binding by flow cytometry. On the set-up: species or system human. Conditions: iDCs. How it is done:
The cells were seeded onto 24-well plate (3×10^5/well/0.5 ml) in X-vivo 15 medium and incubated overnight at 37° C. Subsequently, they were incubated with 6IAF-conjugated peptides (5 μg/ml) for 30 min at 37° C., gently scraped, washed 3 times and then analyzed by flow cytometry. Binding was also performed at 4° C.
In general terms: A flow cytometer gives signals particle by particle.

The test system of assay [2] is iDCs. The assay is described as follows: Peptide binding and internalization by fluorescence microscopy. In kind it is cell-based, human. The conditions noted are these: 37° C. The procedure:
Then the medium was replaced with fresh medium and the cells were incubated with the peptides (5 μg/ml) for 60 min at 37° C. followed by 5 min incubation with Hoechst 33342 (Invitrogen Dynal AS, Oslo, Norway). The cells were washed twice with PBS and fixed with 4% paraformaldehyde for 15 min at 4° C. After washing, slides were covered with Dako cytomation fluorescent mounting medium and then images were taken with either epifluorescence (Leica DM RHC, Leica Microscopy As, Oslo, Norway) or confocal microscopy (Zeiss LSM 510, […]).

For assay [3], the system named is pp65-specific naïve T cells. In words: Induction of CMV-pp65-specific T cells from naive donor repertoire, dextramer staining. The assay is classed as cell-based, human. Conditions: CD45RO-depleted PBMCs, HLA-A2+/CMV negative donors, IL-7, representative example. The procedure: (§1) PBMC from HLA-A2/CMV+ donors were thawed, washed and then incubated with the peptides (5 μg/ml) for 60 min at 4° C. Subsequently, the cells were washed twice and then plated at 2×10^5 cells per well in 96-well tissue culture plate. Cells were cultured for 5 days and subsequently they were pulsed with [^3H] thymidine and harvested 16 h later. In some experiments, the cells were cultured for 12 days and then stained with dextramers specific for pp65 NLVPMVATV (SEQ ID NO:19) epitope. Monocyte-depleted PBMCs were also used. To analyze primary immune responses against pp65 protein, PBMCs from HLA-A2+/CMV-negative donors were used. Autologous DCs were incubated with either NW-pp65 or GA-pp65 peptide (5 μg/ml) at 4° C. for 1 h, followed by three washes to remove unbound peptides. Subsequently, the cells were incubated with CD45RO-depleted PBMC (responder cells) and co-cultured for 10 days at ratio 1/10 (DC to responder cells) in X-vivo 15 medium supplemented with 10 ng/ml human IL-7 for 10 days. […]
Dextramers with CMV (NLVPMVATV) (SEQ ID NO:19) and HIV (ILKEPVHGV) (SEQ ID NO:22) HLA-A2 specific antigens were obtained from Immudex (Copenhagen, Denmark). […] Cells were washed and resuspended in SB containing 1% paraformaldehyd and analyzed on a BD SLR II flow cytometer. The data were analyzed using FCS Express (De Novo Software, Los Angeles, Calif., USA). […]

Assay [4] concerns PBMCs. The assay is described as follows: Autologous stimulation of PBMCs with pp65 targeted peptides, [3H] thymidine incorporation. The assay is classed as cell-based, human. The conditions noted are these: whole PBMCs, peptides at 4° C., 5 days at 37° C. The procedure: as §1, with “days. After 2 rounds of stimulation (8 days each) with autologous DC loaded with peptides, the cells were stained with dextramers specific for pp65 NLVPMVATV (SEQ ID NO:19) epitope. To test spontaneous uptake of peptides by DCs, PBMCs from HLA-A2+/CMV positive donors were incubated at 37° C. with various concentrations of untargeted or targeted pp65 peptide for 90 min.” for “days.”
On the technique in general: Dividing cells build labelled thymidine or BrdU into new DNA.

In assay [5] the test system is CD8 T cells against NLVPMVATV epitope. In words: Dextramer staining of CD8 T cells after PBMC stimulation with pp65 peptides. The assay is classed as cell-based, human. The procedure:
(§2) PBMC from HLA-A2/CMV+ donors were thawed, washed and then incubated with the peptides (5 μg/ml) for 60 min at 4° C. Subsequently, the cells were washed twice and then plated at 2×10^5 cells per well in 96-well tissue culture plate. Cells were cultured for 5 days and subsequently they were pulsed with [^3H] thymidine and harvested 16 h later. In some experiments, the cells were cultured for 12 days and then stained with dextramers specific for pp65 NLVPMVATV (SEQ ID NO:19) epitope. Monocyte-depleted PBMCs were also used. To analyze primary immune responses against pp65 protein, PBMCs from HLA-A2+/CMV-negative donors were used. Autologous DCs were incubated with either NW-pp65 or GA-pp65 peptide (5 μg/ml) at 4° C. for 1 h, followed by three washes to remove unbound peptides. Subsequently, the cells were incubated with CD45RO-depleted PBMC (responder cells) and co-cultured for 10 days at ratio 1/10 (DC to responder cells) in X-vivo 15 medium supplemented with 10 ng/ml human IL-7 for 10 days. After 2 rounds of stimulation (8 days each) with autologous DC loaded with peptides, the cells were stained with dextramers specific for pp65 NLVPMVATV (SEQ ID NO:19) epitope. To test spontaneous uptake of peptides by DCs, PBMCs from HLA-A2+/CMV positive donors were incubated at 37° C. with various concentrations of untargeted or targeted pp65 peptide for 90 min. Subsequently, the cells were washed to remove unbound peptides and cultured at 37° C. for 12 days and then stained with dextramers specific for pp65 NLVPMVATV (SEQ ID NO:19) epitope.
Dextramers with CMV (NLVPMVATV) (SEQ ID NO:19) and HIV (ILKEPVHGV) (SEQ ID NO:22) HLA-A2 specific antigens were obtained from Immudex (Copenhagen, Denmark). Antibodies against human CD8, CD19 and CD56 were obtained from eBioscience (San Diego, Calif., USA). Briefly, around 10^6 cells were washed and resuspended in 50 μl staining buffer SB (PBS with 0.1% human serum albumin and 0.1% NaN3) containing 1 mg/ml aggregated α-globulin and then stained with dextramer for 10 min in the dark at room temperature. Subsequently, antibodies against CD8, CD19 and CD56 were added and incubation continued for additional 20 min. Cells were washed and resuspended in SB containing 1% paraformaldehyd and analyzed on a BD SLR II flow cytometer. The data were analyzed using FCS Express (De Novo Software, Los Angeles, Calif., USA).
Monocytes have the capacity to differentiate into macrophages or inflammatory DCs in-vitro and in-vivo (Auffray et al., (2009) Annu Rev. Immunol. 27, 669-92). Given that the NW peptide bound to blood monocytes, it was investigated whether this binding affects T-cell activation. Therefore, proliferation assays were performed with whole PBMCs. […]

Assay [6] deals with PBMC cultures from CMV-positive donors. The assay is described as follows: IFN-γ production in PBMC cultures. In kind it is cell-based, human. How it is done:
(A) PBMCs from HLA-A2+/CMV-positive donors were incubated with the indicated fusion peptides for 60 min at 4° C., washed and then incubated at 37° C. for […]. T-cell proliferation was monitored by thymidine incorporation. (B) Dextramer staining of CD8 T cells against NLVPMVATV (SEQ ID NO:19) epitope. (C) As in A and B, but monocyte-depleted PBMCs were used. (D) INF-γ and IL-10 levels in PBMC culture supernatants determined by ELISA.
Next, the immunostimulatory potential of the NW-pp65 fusion peptide was evaluated by assessing its ability to stimulate the overall IFN-γ and IL-10 production in PBMC cultures from CMV-positive donors (FIG. 8D).

Assay [7] relates to PBMCs. The assay is described as follows: Targeted vs spontaneous uptake of pp65 peptides at 37° C., dextramer staining. The conditions noted are these: PBMCs incubated at 37° C., 12 days, relative to untargeted peptide, particularly at lower peptide concentrations. In kind it is cell-based, human. How it is done: as §2, with “Subsequently, the cells were washed to remove unbound peptides and cultured at 37° C. for 12 days and then stained with dextramers specific for pp65 NLVPMVATV (SEQ ID NO:19) epitope.” left out

Take “NWYLPWLGTNDWGCFTWPPWQAGILARNLVPMVATVQGQNLKYQEFFWDANDIYRIFAEL [NW-60-mer, 48-mer CMV pp65 peptide fused to NW peptide]”: the “binding of 6IAF-conjugated pp65 fusion peptides to DCs” value in assay [1] was “bound to iDCs”. Besides, in assay [2], the “internalization by iDCs (confocal microscopy)” value is recorded as “internalized”. Besides, in assay [3], the “pp65-specific naïve T cells (dextramer staining)” value is on record as 0.22%. Moreover, in assay [4], the “T-cell proliferation ([3H]-thymidine)” value is reported as “stimulated T-cell proliferation”. In addition, the “CTL response (dextramer staining)” value in assay [5] (monocyte-depleted PBMCs) stood at 5.60%; in assay [5] (whole PBMCs, n=3) it was 8.85%. Besides, in assay [6] (ELISA of PBMC culture supernatants, relative to untargeted peptide, n=4), the “total amounts of secreted IFN-γ” value was “significant increase”. In addition, the “proportion of CD8 and CD4 T cells that produced IFN-γ” value in assay [6] (PBMCs from HLA-A2+/CMV positive) is “significant increase”. For the same sequence, the “expansion of CD8 T cells after uptake at 37° C.” value in assay [7] is recorded as “significant expansion of CD8 T cells”.

These data come from patent US20160083424A1, “COMPOSITIONS AND METHODS FOR TARGETING ANTIGEN-PRESENTING CELLS” (OSLO UNIVERSITETSSYKEHUS HF, priority 2013, published 2016).
